Experimental data: US20250257095A1, “METHOD FOR VISIBLE LIGHT-MEDIATED CHEMICAL MODIFICATION OF POLYPEPTIDE AND PROTEIN BASED ON CYSTEINE” (SHANGHAI JIAO TONG UNIVERSITY, priority 2022, published 2025)

Experiment: Plasma stability test (incubation in plasma at 37° C., LC-MS/MS)
Assay type: in vitro ADME
Settings: 2 h later; for metabolised at 2 h, 5 μg/mL: read-out: compound degraded in plasma
Protocol: About 3 μL of a 500 μg/mL compound was taken and added to 297 μL of plasma. Incubation was conducted at 37° C. for 0 h to 3 h. 20 μL of a sample was collected at 1 min, 10 min, 30 min, 60 min, and 120 min. Then 100 μL of acetonitrile was added to precipitate proteins. Then 1 μL of a sample was collected and tested by liquid chromatography-tandem triple quadrupole mass spectrometer (LC-MS/MS) to determine a downward response of the compound in the plasma. The stability of the compound in the plasma could be quantified through plotting.

Row | SMILES | compound degraded in plasma | metabolised at 2 h, 5 μg/mL [%]
1 | COC(=O)[C@H](CCC(=O)c1ccccc1)NC(=O)[C@H](CCCCNC(=O)OC(C)(C)C)NC(=O)OCc1ccccc1 [DP-11] | not observed | 
2 | CCN1C(=O)CC(SC[C@@H](NC(=O)[C@@H](Cc2ccccc2)NC(=O)OC(C)(C)C)C(=O)O)C1=O (stereo partly shown) [compound 1] |  | ~14
3 | COC(=O)[C@H](CCC(=O)c1ccccc1)NC(=O)[C@H](Cc1ccccc1)NC(=O)OC(C)(C)C [DP-04] | not observed | 
4 | CCN1C(=O)CC(SC[C@@H](NC(=O)[C@@H](CCCCNC(=O)OC(C)(C)C)NC(=O)OCc2ccccc2)C(=O)O)C1=O (stereo partly shown) [compound 2] |  | ~1.5
